Assay results reported in patent publication US7723524B2, “8-cyanoquinolonecarboxylic acid derivative” (Daiichi Pharmaceutical Co., Ltd., priority 2003, dated 2010).
≈ marks a conversion by molar mass, not a printed value. Structures can show the parent of a compound that is named as a salt. Where two headings read alike, the source gives them in different places.

Legend:
[1] = system: E. faevcalis ATCC 19433; assay: Antibacterial activity (MIC), standard method of the Japanese Society of Chemotherapy; format: cell-based
Method: (§1) Antibacterial activity of the compounds of the present invention was measured in accordance with the standard method designated by the Japanese Society of Chemotherapy. The results are shown in MIC values (μg/mL) (Table 1). For comparison with the MIC values of the compounds of the present invention, MIC values of levofloxacin (LVFX), ciprofloxacin (CPFX), and 7-[3-(R)-(1-aminocyclopropyl)pyrrolidin-1-yl]-8-cyano-1-[2-(S)-fluoro-1-(R)-cyclopropyl]-1,4-dihydro-4-oxoquinoline-3-carboxylic acid (control drug 1: represented by the following formula), which is described in International Publication WO 02/40478 pamphlet, are also shown in the table.

[2] = system: E. coli NIHJ; assay: as above; format: cell-based; conditions: Escherichia coli
Method: as §1

[3] = system: S. maltophilia IID 1275; assay: as above; format: cell-based; conditions: Stenotrophomonas maltophilia, IID1275
Method: as §1

[4] = system: P. aeruginosa 32104; assay: as above; format: cell-based; conditions: Pseudomonas aeruginosa
Method: as §1

[5] = system: S. aureus 870307; assay: as above; format: cell-based; conditions: Staphylococcus aureus
Method: as §1

[6] = system: S. marcescens 10100; assay: as above; format: cell-based; conditions: Serratia marcescens
Method: as §1

[7] = system: S. aureus FDA 209P; assay: as above; format: cell-based; conditions: Staphylococcus aureus, FDA209P
Method: as §1

[8] = system: P. aeruginosa 32121; assay: as above; format: cell-based; conditions: Pseudomonas aeruginosa
Method: as §1

[9] = system: S. epidermidis 56500; assay: as above; format: cell-based; conditions: Staphylococcus epidermidis
Method: as §1

[10] = system: S. flexneri 2A 5503; assay: as above; format: cell-based; conditions: Shigella flexneri, 2A5503
Method: as §1

[11] = system: S. pyogenes G-36; assay: as above; format: cell-based; conditions: Streptococcus pyogenes, G36
Method: as §1

[12] = system: P. Vulgaris 08601; assay: as above; format: cell-based; conditions: Proteus vulgaris
Method: as §1

[13] = system: K. pneumoniae TYPE I; assay: as above; format: cell-based; conditions: Klebsiella pneumoniae
Method: as §1

[14] = system: S. pneumoniae J24; assay: as above; format: cell-based; conditions: Streptococcus pneumoniae
Method: as §1

[15] = system: mouse bone marrow polychromatic erythrocytes; assay: Mouse bone marrow micronucleus test; format: in vivo; conditions: male Slc:ddY mice, 24 hours after administration
Method: By use of compound Nos. 1 and 2, a mouse bone marrow micronucleus test was performed through the following method.
Groups of mice, each consisting of five, six-week-old, male Slc:ddY mice, were used. Compound Nos. 1 and 2 were dissolved in and diluted with 0.1 mol/L NaOH/saline. The medium; i.e., 0.1 mol/L NaOH/saline, was used as a control, and a drug solution which had been prepared by dissolving and diluting cyclophosphamide in saline was used as a positive control drug. All the drug solutions were disinfected through filtration by use of a Mylex GS 0.22 μm filter. Each drug solution was intravenously administered with a regimen of 10 mL/kg single dose at a rate of 0.2 mL/min (100 and 150 mg/kg). Twenty four hours after administration, […] were collected from the femur bone, the smear preparations were prepared, and these were stained with […].

[16] = E. faevcalis ATCC 19433, read-out: MIC
[17] = S. maltophilia IID 1275, read-out: MIC
[18] = P. aeruginosa 32104, read-out: MIC
[19] = S. aureus 870307, read-out: MIC
[20] = S. marcescens 10100, read-out: MIC
[21] = S. aureus FDA 209P, read-out: MIC
[22] = P. aeruginosa 32121, read-out: MIC
[23] = S. epidermidis 56500, read-out: MIC
[24] = S. pyogenes G-36, read-out: MIC
[25] = P. Vulgaris 08601, read-out: MIC
[26] = K. pneumoniae TYPE I, read-out: MIC
[27] = S. pneumoniae J24, read-out: MIC

SMILES | MIC [1, 16] [µg/mL] | MIC ([2]; E. coli NIHJ, read-out: MIC) [µg/mL] | MIC [3, 17] [µg/mL] | MIC [4, 18] [µg/mL] | MIC [5, 19] [µg/mL] | MIC [6, 20] [µg/mL] | MIC [7, 21] [µg/mL] | MIC [8, 22] [µg/mL] | MIC [9, 23] [µg/mL] | MIC [10] [µg/mL] | MIC [11, 24] [µg/mL] | MIC [12, 25] [µg/mL] | MIC [13, 26] [µg/mL] | MIC [14, 27] [µg/mL] | also measured
N#Cc1c(N2CC[C@@H](C3(N)CC3)C2)c(F)cc2c(=O)c(C(=O)O)cn(C3CC3)c12 (as salt: trifluoroacetate) (hydrate or solvate) [Compound No. 2, 7-[3-(R)-(1-Aminocyclopropyl)pyrrolidin-1-yl]-8-cyano-1-cyclopropyl-6-fluoro-1,4-dihydro-4-oxoquinoline-3-carboxylate] |  |  |  |  |  |  |  |  |  |  |  |  |  |  | melting point: 148 to 152 °C
N#Cc1c(N2CC[C@@H](C3(N)CC3)C2)c(F)cc2c(=O)c(C(=O)O)cn([C@@H]3C[C@@H]3F)c12 (hydrate or solvate) [Compound No. 1, 7-[3-(R)-(1-Aminocyclopropyl)pyrrolidin-1-yl]-8-cyano-6-fluoro-1-[2-(S)-fluoro-1-(R)-cyclopropyl]-1,4-dihydro-4-oxoquinoline-3-carboxylate] |  |  |  |  |  |  |  |  |  |  |  |  |  |  | melting point: 138 to 140 °C
O=C(O)c1cn(C2CC2)c2cc(N3CCNCC3)c(F)cc2c1=O [CPFX, ciprofloxacin, reference compound] | 0.78 (≈ 2.35 µM) | ≤ 0.003 | 0.78 (≈ 2.35 µM) | 0.05 (≈ 0.151 µM) | > 6.25 | 0.025 (≈ 0.0754 µM) | 0.1 (≈ 0.302 µM) | 0.025 (≈ 0.0754 µM) | 0.2 (≈ 0.604 µM) | 0.006 (≈ 0.0181 µM) | 1.56 (≈ 4.71 µM) | ≤ 0.003 | 0.025 (≈ 0.0754 µM) | 0.39 (≈ 1.18 µM) | 
N#Cc1c(N2CC[C@@H](C3(N)CC3)C2)ccc2c(=O)c(C(=O)O)cn([C@@H]3C[C@@H]3F)c12 [Control drug 1, 7-[3-(R)-(1-aminocyclopropyl)pyrrolidin-1-yl]-8-cyano-1-[2-(S)-fluoro-1-(R)-cyclopropyl]-1,4-dihydro-4-oxoquinoline-3-carboxylic acid, reference compound] | 0.1 (≈ 0.252 µM) | 0.012 (≈ 0.0303 µM) | 0.78 (≈ 1.97 µM) | 0.2 (≈ 0.505 µM) | 0.39 (≈ 0.984 µM) | 0.1 (≈ 0.252 µM) | 0.006 (≈ 0.0151 µM) | 0.1 (≈ 0.252 µM) | 0.05 (≈ 0.126 µM) | 0.012 (≈ 0.0303 µM) | 0.025 (≈ 0.0631 µM) | 0.025 (≈ 0.0631 µM) | 0.1 (≈ 0.252 µM) | 0.025 (≈ 0.0631 µM) | 
C[C@H]1COc2c(N3CCN(C)CC3)c(F)cc3c(=O)c(C(=O)O)cn1c23 [LVFX, levofloxacin, reference compound] | 0.78 (≈ 2.16 µM) | 0.012 (≈ 0.0332 µM) | 0.39 (≈ 1.08 µM) | 0.2 (≈ 0.553 µM) | > 6.25 | 0.1 (≈ 0.277 µM) | 0.2 (≈ 0.553 µM) | 0.1 (≈ 0.277 µM) | 0.39 (≈ 1.08 µM) | 0.025 (≈ 0.0692 µM) | 0.78 (≈ 2.16 µM) | 0.012 (≈ 0.0332 µM) | 0.1 (≈ 0.277 µM) | 0.78 (≈ 2.16 µM) | 
N#Cc1c(N2CC[C@@H](C3(N)CC3)C2)c(F)cc2c(=O)c(C(=O)O)cn([C@@H]3C[C@@H]3F)c12 [No. 1] | 0.025 (≈ 0.0603 µM) | ≤ 0.003 | 0.2 (≈ 0.483 µM) | 0.1 (≈ 0.241 µM) | 0.05 (≈ 0.121 µM) | 0.025 (≈ 0.0603 µM) | ≤ 0.003 | 0.05 (≈ 0.121 µM) | 0.006 (≈ 0.0145 µM) | ≤ 0.003 | 0.006 (≈ 0.0145 µM) | 0.006 (≈ 0.0145 µM) | 0.025 (≈ 0.0603 µM) | 0.006 (≈ 0.0145 µM) | difference in the micronucleus induction rate between the control and the administration group ([15]; 150 mg/kg intravenous single dose): no significant difference; micronucleus test judgment result ([15]; intravenous single dose, up to 150 mg/kg): negative
N#Cc1c(N2CC[C@@H](C3(N)CC3)C2)c(F)cc2c(=O)c(C(=O)O)cn(C3CC3)c12 [No. 2] | 0.025 (≈ 0.0631 µM) | ≤ 0.003 | 0.1 (≈ 0.252 µM) | 0.1 (≈ 0.252 µM) | 0.05 (≈ 0.126 µM) | 0.025 (≈ 0.0631 µM) | ≤ 0.003 | 0.05 (≈ 0.126 µM) | 0.012 (≈ 0.0303 µM) | ≤ 0.003 | 0.006 (≈ 0.0151 µM) | 0.006 (≈ 0.0151 µM) | 0.012 (≈ 0.0303 µM) | 0.006 (≈ 0.0151 µM) | 
CNC1([C@@H]2CCN(c3c(F)cc4c(=O)c(C(=O)O)cn([C@@H]5C[C@@H]5F)c4c3C#N)C2)CC1 [No. 3] |  |  |  |  |  |  |  |  |  | ≤ 0.003 |  |  |  |  | MIC [1]: 0.05 µg/mL (≈ 0.117 µM); MIC [2]: ≤ 0.003 µg/mL; MIC [3]: 0.1 µg/mL (≈ 0.233 µM); MIC [4]; 32104: 0.1 µg/mL (≈ 0.233 µM); MIC [5]; 870307: 0.025 µg/mL (≈ 0.0584 µM); MIC [6]; 10100: 0.05 µg/mL (≈ 0.117 µM); MIC [7]: 0.006 µg/mL (≈ 0.014 µM); MIC [8]; 32121: 0.05 µg/mL (≈ 0.117 µM); MIC [9]; 56500: 0.012 µg/mL (≈ 0.028 µM); MIC [11]: 0.006 µg/mL (≈ 0.014 µM); MIC [12]: 0.012 µg/mL (≈ 0.028 µM); MIC [13]: 0.025 µg/mL (≈ 0.0584 µM); MIC ([14]; J24): 0.006 µg/mL (≈ 0.014 µM)
CCNC1([C@@H]2CCN(c3c(F)cc4c(=O)c(C(=O)O)cn([C@@H]5C[C@@H]5F)c4c3C#N)C2)CC1 [No. 4] |  |  |  |  |  |  |  |  |  | 0.006 (≈ 0.0136 µM) |  |  |  |  | MIC [1]: 0.05 µg/mL (≈ 0.113 µM); MIC [2]: 0.006 µg/mL (≈ 0.0136 µM); MIC [3]: 0.2 µg/mL (≈ 0.452 µM); MIC [4]; 32104: 0.2 µg/mL (≈ 0.452 µM); MIC [5]; 870307: 0.025 µg/mL (≈ 0.0565 µM); MIC [6]; 10100: 0.1 µg/mL (≈ 0.226 µM); MIC [7]: 0.006 µg/mL (≈ 0.0136 µM); MIC [8]; 32121: 0.1 µg/mL (≈ 0.226 µM); MIC [9]; 56500: 0.006 µg/mL (≈ 0.0136 µM); MIC [11]: 0.025 µg/mL (≈ 0.0565 µM); MIC [12]: 0.012 µg/mL (≈ 0.0271 µM); MIC [13]: 0.025 µg/mL (≈ 0.0565 µM); MIC ([14]; J24): 0.006 µg/mL (≈ 0.0136 µM)
